From US11629171B2, “Beta-hairpin peptidomimetics” (POLYPHOR AG, priority 2017, dated 2023)
In brackets after ≈: the same amount, converted by molar mass. Where a SMILES comes first, the peptide text is derived from it. Bridges are numbered along the chain shown (N, C = ends). Roman numbers before positions name the chains, in order. [ ]: non-standard residue; d: D form. dDab = NCC[C@@H](N)C(=O)O; Nle = CCCC[C@H](N)C(=O)O; Orn = NCCC[C@H](N)C(=O)O; Dab = NCC[C@H](N)C(=O)O; Dap = NC[C@H](N)C(=O)O

Experiments:
Format in all cases: cell-based
[1] = tested on: human red blood cells (hRBC); assay: Hemolysis; details: red cells of human, 1 h, 200
Summary of the method: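 Read-out is supernatant absorbance at 540 nm, normalised to full lysis by 2% Triton X-100 and zero lysis by PBS with 10% water. Peptides (200 μg/mL) were exposed to 20% v/v washed human erythrocytes at 37° C for 1 h under shaking.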

[2] = tested on: Pseudomonas aeruginosa ATCC 27853; details: ATCC 27853
Summary of the method: (§1)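 CLSI broth microdilution in cation-adjusted Mueller-Hinton II broth with 0.002% polysorbate 80 (final), inoculum appr. 10^6 CFU/mL, peptides in serial two-fold dilutions. MIC (μg/mL) is the lowest concentration without visible growth after 18-20 h at 35° C.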

[3] = tested on: Enterobacter cloacae 848840; details: 848840
Summary of the method: as §1

[4] = tested on: Acinetobacter baumannii 872842; details: 872842
Summary of the method: as §1

[5] = tested on: Klebsiella pneumoniae SSI #3010; details: SSI #3010
Summary of the method: as §1

[6] = tested on: Escherichia coli ATCC 25922; details: ATCC 25922
Summary of the method: as §1

[7] = tested on: Acinetobacter baumannii DSM 30008; details: DSM 30008
Summary of the method: as §1

[8] = tested on: Klebsiella pneumoniae 968733; details: 968733
Summary of the method: as §1

Escherichia coli 926415 = details: 926415
Summary of the method: as §1

SMILES | Hemolysis at 200 μg/mL [1] [%] | Pseudomonas aeruginosa ATCC 27853 MIC [2] [µg/mL] | MIC [3] [µg/mL] | MIC [4] [µg/mL] | Klebsiella pneumoniae SSI #3010 MIC [5] [µg/mL] | Escherichia coli ATCC 25922 MIC [6] [µg/mL] | Acinetobacter baumannii DSM 30008 MIC [7] [µg/mL] | MIC [8] [µg/mL] | MIC (Escherichia coli 926415) [µg/mL]
CCCC[C@@H]1NC(=O)[C@H](CO)NC(=O)[C@H](Cc2c[nH]c3ccccc23)NC(=O)[C@H](CO)NC(=O)[C@@H](CCN)NC(=O)[C@H](CCC(=O)N[C@@H](CCN)C(=O)N[C@H](C(=O)N[C@@H](CN)C(=O)N[C@H]2CCNC(=O)[C@H]([C@@H](C)O)NC(=O)[C@H](CCN)NC(=O)[C@H](CCN)NC(=O)[C@H](CC(C)C)NC(=O)[C@@H](CC(C)C)NC(=O)[C@H](CCN)NC2=O)[C@@H](C)O)NC(=O)[C@H](CCN)NC(=O)[C@H](Cc2ccc(O)cc2)NC(=O)[C@@H](NC(=O)[C@@H](NC(C)=O)C(C)C)CSSC[C@@H](C(=O)N[C@@H](CO)C(N)=O)NC1=O [Ex. 316] (I: Ac-VCY[Dab]E[dDab]SWS[Nle]CS-NH2 / II: [Dab]T[Dap][Dab][Dab][dL]L[Dab][Dab]T; disulfide I:2-I:11; amide I:5-II:N; lactam II:4-II:C) | <1 | 0.0625 | 0.0625 (≈ 0.0259 µM) | 0.03125 (≈ 0.013 µM) | 0.0625 | 0.01562 | 0.01562 | 0.0625 (≈ 0.0259 µM) | 0.0625 (≈ 0.0259 µM)
CC(=O)N[C@H](C(=O)N[C@H]1CCCNC(=O)C[C@@H](C(=O)N[C@@H](CO)C(N)=O)NC(=O)[C@H](C(C)C)NC(=O)[C@H](CO)NC(=O)[C@H](Cc2c[nH]c3ccccc23)NC(=O)[C@H](CO)NC(=O)[C@@H](CCN)NC(=O)[C@H](CCC(=O)N[C@@H](CCN)C(=O)N[C@H](C(=O)N[C@@H](CN)C(=O)N[C@H]2CCNC(=O)[C@H]([C@@H](C)O)NC(=O)[C@H](CCN)NC(=O)[C@H](CCN)NC(=O)[C@H](CC(C)C)NC(=O)[C@@H](CC(C)C)NC(=O)[C@H](CCN)NC2=O)[C@@H](C)O)NC(=O)[C@H](CCN)NC(=O)[C@H](Cc2ccc(O)cc2)NC1=O)C(C)C [Ex. 319] (I: Ac-V[Orn]Y[Dab]E[dDab]SWSVDS-NH2 / II: [Dab]T[Dap][Dab][Dab][dL]L[Dab][Dab]T; lactam I:2-I:11, II:4-II:C; amide I:5-II:N) | <1 | 0.125 | 1 (≈ 0.416 µM) | 0.5 (≈ 0.208 µM) | 0.25 | 0.0625 | 0.125 | 4 (≈ 1.66 µM) | 1 (≈ 0.416 µM)
CC(=O)N[C@H](C(=O)N[C@H]1CNC(=O)CC[C@@H](C(=O)N[C@@H](CO)C(N)=O)NC(=O)[C@H](C(C)C)NC(=O)[C@H](CO)NC(=O)[C@H](Cc2c[nH]c3ccccc23)NC(=O)[C@H](CO)NC(=O)[C@@H](CCN)NC(=O)[C@H](CCC(=O)N[C@@H](CCN)C(=O)N[C@H](C(=O)N[C@@H](CN)C(=O)N[C@H]2CCNC(=O)[C@H]([C@@H](C)O)NC(=O)[C@H](CCN)NC(=O)[C@H](CCN)NC(=O)[C@H](CC(C)C)NC(=O)[C@@H](CC(C)C)NC(=O)[C@H](CCN)NC2=O)[C@@H](C)O)NC(=O)[C@H](CCN)NC(=O)[C@H](Cc2ccc(O)cc2)NC1=O)C(C)C [Ex. 320] (I: Ac-V[Dap]Y[Dab]E[dDab]SWSVES-NH2 / II: [Dab]T[Dap][Dab][Dab][dL]L[Dab][Dab]T; lactam I:2-I:11, II:4-II:C; amide I:5-II:N) | <1 | 0.25 | 2 (≈ 0.836 µM) | 1 (≈ 0.418 µM) | 0.125 | 0.0625 | 0.5 | 8 (≈ 3.34 µM) | 4 (≈ 1.67 µM)
CC(=O)N[C@H](C(=O)N[C@H]1CCNC(=O)CC[C@@H](C(=O)N[C@@H](CO)C(N)=O)NC(=O)[C@H](C(C)C)NC(=O)[C@H](CO)NC(=O)[C@H](Cc2c[nH]c3ccccc23)NC(=O)[C@H](CO)NC(=O)[C@@H](CCN)NC(=O)[C@H](CCC(=O)N[C@@H](CCN)C(=O)N[C@H](C(=O)N[C@@H](CCN)C(=O)N[C@H]2CCNC(=O)[C@H]([C@@H](C)O)NC(=O)[C@H](CCN)NC(=O)[C@H](CCN)NC(=O)[C@H](CC(C)C)NC(=O)[C@@H](CC(C)C)NC(=O)[C@H](CCN)NC2=O)[C@@H](C)O)NC(=O)[C@H](CCN)NC(=O)[C@H](Cc2ccc(O)cc2)NC1=O)C(C)C [Ex. 321] (I: Ac-V[Dab]Y[Dab]E[dDab]SWSVES-NH2 / II: [Dab]T[Dab][Dab][Dab][dL]L[Dab][Dab]T; lactam I:2-I:11, II:4-II:C; amide I:5-II:N) | 0 | 0.125 | 0.25 (≈ 0.103 µM) | 0.25 (≈ 0.103 µM) | 0.125 | 0.0625 | 0.125 | 1 (≈ 0.413 µM) | 0.5 (≈ 0.207 µM)
CC[C@H](C)[C@@H]1NC(=O)[C@H](CO)NC(=O)[C@H](Cc2c[nH]c3ccccc23)NC(=O)[C@H](CO)NC(=O)[C@@H](CCN)NC(=O)[C@H](CCC(=O)N[C@@H](CCN)C(=O)N[C@H](C(=O)N[C@@H](CN)C(=O)N[C@H]2CCNC(=O)[C@H]([C@@H](C)O)NC(=O)[C@H](CCN)NC(=O)[C@H](CCN)NC(=O)[C@H](CC(C)C)NC(=O)[C@@H](CC(C)C)NC(=O)[C@H](CCN)NC2=O)[C@@H](C)O)NC(=O)[C@H](CN)NC(=O)[C@H](Cc2ccc(O)cc2)NC(=O)[C@@H](NC(=O)[C@@H](NC(C)=O)C(C)C)CCNC(=O)CC[C@@H](C(=O)N[C@@H](CO)C(N)=O)NC1=O [Ex. 322] (I: Ac-V[Dab]Y[Dap]E[dDab]SWSIES-NH2 / II: [Dab]T[Dap][Dab][Dab][dL]L[Dab][Dab]T; lactam I:2-I:11, II:4-II:C; amide I:5-II:N) | <1 | 0.125 | 0.0625 (≈ 0.026 µM) | 0.0625 (≈ 0.026 µM) | 0.125 | 0.0625 | 0.0625 | 0.25 (≈ 0.104 µM) | 0.125 (≈ 0.052 µM)
CC[C@H](C)[C@@H]1NC(=O)[C@H](CO)NC(=O)[C@H](Cc2c[nH]c3ccccc23)NC(=O)[C@H](CO)NC(=O)[C@@H](CCN)NC(=O)[C@H](CCC(=O)N[C@@H](CCN)C(=O)N[C@H](C(=O)N[C@@H](CN)C(=O)N[C@H]2CCNC(=O)[C@H]([C@@H](C)O)NC(=O)[C@H](CCN)NC(=O)[C@H](CCN)NC(=O)[C@H](CC(C)C)NC(=O)[C@@H](CC(C)C)NC(=O)[C@H](CCN)NC2=O)[C@@H](C)O)NC(=O)[C@H](CCN)NC(=O)[C@H](Cc2ccc(O)cc2)NC(=O)[C@@H](NC(=O)[C@@H](NC(C)=O)C(C)C)CCNC(=O)C[C@@H](C(=O)N[C@@H](CO)C(N)=O)NC1=O [Ex. 323] (I: Ac-V[Dab]Y[Dab]E[dDab]SWSIDS-NH2 / II: [Dab]T[Dap][Dab][Dab][dL]L[Dab][Dab]T; lactam I:2-I:11, II:4-II:C; amide I:5-II:N) | <1 | 0.125 | 0.125 (≈ 0.052 µM) | 0.0625 (≈ 0.026 µM) | 0.125 | 0.0625 | 0.0625 | 0.5 (≈ 0.208 µM) | 0.25 (≈ 0.104 µM)
